# Data as given in patent publication US9464060B2, “Compounds” (TAKEDA PHARMACEUTICAL COMPANY LIMITED, priority 2013, dated 2016).
# Counter-ions that a name gives are not always drawn.
# What was measured:
# [1] = In vivo bleomycin induced scleroderma model; parameters: species or system C57BL/6 mice; conditions: mice, bleomycin i.d.
# Procedure: In Vivo Bleomycin Induced Scleroderma Model Experimental Outline
# Adult male C57BL/6 mice, aged 8-10 weeks, were assigned to groups and allowed to acclimatise for a week. On Day −1, the back skin of the animals was shaved. From Day 0, animals were administered with 100 μl of a 1 mg/ml solution of bleomycin sulphate in phosphate buffered saline (PBS) by intradermal injection in the shaved skin. Injections were repeated in a one square centimeter area every other day for four weeks. A group of ten animals (Control group) was injected with an identical volume of PBS. Animals were weighed at the beginning of the experiment on Day 0 and then twice weekly throughout the study. At the end of the experiment, on Day 28, animals were culled and samples of back skin were taken for further analysis. All groups were n=10; the vehicle was distilled water and the administration volume was 10 ml/kg for oral gavage (p.o.); administration volume was 25 μl for topical application.
# Bodyweights were graphed along with the standard error of the mean (SEM); Skin samples (two punch biopsies per animal, 4 mm in diameter each) samples were hydrolyzed and hydroxyproline content of the samples was determined from analysis in a semi-automated process using a continuous flow analyzer. Autoanalyser readings were calibrated against hydroxyproline standards and collagen content calculated. […] Bleomycin administration induced a highly significant increase in skin collagen content when compared to the control, saline-injected, group (p<0.01).
# LPA5 receptor [2] = molecular target: LPA5 receptor (Homo sapiens (Human), UniProt Q9H1C0); test: In vitro LPA5 receptor assay (LPA-driven intracellular calcium release, FLIPR); assay type: cell-based; conditions: RH7777 cells expressing human LPA5 receptors; LPA at EC90
# Procedure: In Vitro LPA5 Receptor Assay
# (§1) Engagement of the LPA5 receptor by its ligand, oleoyl-L-α-lysophosphatidic acid (LPA), leads to the release of intracellular stores of calcium into the cytoplasm mediated through a Gq-driven increase in inositol triphosphate (IP3) levels. Gq is a heterotrimeric G protein subunit that activates phospholipase C.
# The ability of test compounds to prevent LPA-driven intracellular release of stored calcium from RH7777 cells expressing human LPA5 receptors was assayed by stimulating the cells with LPA in the presence of various test compounds to measure the test compounds'antagonism, i.e. activity in vitro.
# (§2) Approximately 10,000 cells in normal culture medium (Minimal Essential Media, 10% Foetal Calf Serum) were dispensed per assay well in a black clear bottom poly-D-lysine coated 384 well plate (Corning). Cells were allowed to settle for thirty minutes at room temperature before being incubated overnight at 37° C., 5% CO2. Sixteen to twenty hours after dispensing, the cells were loaded with a calcium-sensitive fluorescent dye by replacing the culture medium with assay buffer (1× Hanks buffered saline, 25 mM HEPES, 0.1% w/v fatty acid free BSA (bovine serum albumin), pH7.4) containing 1.25 mM probenecid and 1× Calcium 5 Reagent (Molecular Devices). Cells were incubated at 37° C. for one hour to allow for dye uptake.
# (§3) To test for antagonist activity, test compounds at a final concentration range between 0.32 nM-10 μM (diluted in assay buffer) were added to the assay wells and allowed to incubate for fifteen minutes. […] Ligand-dependent changes in intracellular calcium levels were determined by measuring changes in fluorescence of the dye over […] following excitation over […].
# LPA5 receptor [3] = test: In vivo farnesyl pyrophosphate-induced hyperalgesia model (Randall-Selitto); conditions: rat, FPP-induced hyperalgesia
# Procedure: In Vivo Farnesyl Pyrophosphate-Induced Inflammatory Model
# The FPP-induced hyperalgesia model is a pharmacodynamic rat model which involves inducing pain by injecting FPP, an agonist of LPA5 receptor, into the plantar surface of the hindpaw.
# Withdrawal responses were reassessed at 30 and 90 minutes after injection of FPP in the ipsilateral paw.
# human LPA1 receptors = human LPA1 receptors (Homo sapiens (Human), UniProt Q92633); test: In vitro LPA1 receptor assay (LPA-driven intracellular calcium release, FLIPR); assay type: cell-based; conditions: RH7777 cells expressing human LPA1 receptors; LPA at EC80
# Procedure: In Vitro LPA1 Receptor Assay
# as §1, with “LPA1” for “LPA5”
# The ability of test compounds to prevent LPA-driven intracellular release of stored calcium from RH7777 cells expressing human LPA1 receptors was assayed by stimulating the cells with LPA in the presence of various test compounds to measure the test compounds' antagonism, i.e. activity in vitro.
# as §2, with “(Dulbecco's Modified Eagle” for “(Minimal Essential”, “collagen” for “poly-D-lysine”, “(Beckton Dickinson).” for “(Corning).”
# as §3, with “twenty five” for “fifteen”
# human LPA1 receptors, sequence (Q92633 whole entry): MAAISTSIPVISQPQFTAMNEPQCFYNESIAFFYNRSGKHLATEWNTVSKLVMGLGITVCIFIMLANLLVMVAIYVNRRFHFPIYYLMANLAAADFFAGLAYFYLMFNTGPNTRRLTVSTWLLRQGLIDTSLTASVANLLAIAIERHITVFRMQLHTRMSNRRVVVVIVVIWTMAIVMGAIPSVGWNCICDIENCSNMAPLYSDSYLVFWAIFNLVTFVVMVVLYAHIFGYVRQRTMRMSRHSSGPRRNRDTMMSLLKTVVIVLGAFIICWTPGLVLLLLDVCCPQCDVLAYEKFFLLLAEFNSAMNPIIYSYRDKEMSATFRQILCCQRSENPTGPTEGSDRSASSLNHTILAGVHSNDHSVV
# LPA5 receptor (Homo sapiens (Human), UniProt Q9H1C0), sequence (Q9H1C0 whole entry): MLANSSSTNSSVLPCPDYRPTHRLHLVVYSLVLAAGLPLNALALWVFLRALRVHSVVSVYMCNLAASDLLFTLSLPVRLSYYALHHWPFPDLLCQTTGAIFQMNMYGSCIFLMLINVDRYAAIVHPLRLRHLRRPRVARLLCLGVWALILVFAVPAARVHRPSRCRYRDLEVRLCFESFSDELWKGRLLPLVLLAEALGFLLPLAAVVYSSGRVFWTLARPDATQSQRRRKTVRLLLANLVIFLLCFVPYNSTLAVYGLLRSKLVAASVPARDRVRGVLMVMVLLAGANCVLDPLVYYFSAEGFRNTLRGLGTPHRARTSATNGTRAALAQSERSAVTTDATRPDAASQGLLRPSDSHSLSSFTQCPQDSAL
SMILES,IC50 (LPA5 receptor [2]) [nM],IC50 (human LPA1 receptors) [nM],further results
"Cc1ccc(NC(=O)c2ccc(CN3CCN(C)CC3)cc2)cc1Nc1nccc(-c2cccnc2)n1 [Imatinib, Imatinib mesylate, reference compound]",–,–,skin collagen content compared to the vehicle-treated group ([1]; treatment from Day 0 to Day 28): non-significant reduction
"O=C(O)c1ccc(CN(Cc2ccccc2)C(=O)c2ccc(Oc3ccccc3F)cc2)cc1 [Example 11, 4-((N-Benzyl-4-(2-fluorophenoxy)benzamido)methyl)benzoic acid]",6,6,In vivo efficacy (minimum effective dose (MED) mg/kg) (LPA5 receptor [3]; route po): ≦10 mg/kg
"Cc1cccc(F)c1Oc1ccc(C(=O)N(Cc2ccc(C(=O)O)cc2)CC2CC2)cc1 [Example 40, 4-((N-(Cyclopropylmethyl)-4-(2-fluoro-6-methylphenoxy)-benzamido)methyl)benzoic acid]",31,160,In vivo efficacy (minimum effective dose (MED) (LPA5 receptor [3]; route po): 60 mg/kg
"C[C@H]1C[C@H]2[C@@H]3CCC4=CC(=O)C=C[C@]4(C)[C@@]3(F)[C@@H](O)C[C@]2(C)[C@@]1(O)C(=O)CO [Betamethasone, reference compound]",–,–,skin collagen content compared to the vehicle-treated group ([1]; treatment from Day 0 to Day 28): non-significant reduction
"Cc1ccccc1Oc1ccc(C(=O)N(Cc2ccccc2)Cc2ccc(C(=O)O)cc2)cc1 [Example 24, 4-((N-Benzyl-4-(o-tolyloxy)benzamido)methyl)benzoic acid]",7,11,In vivo efficacy (minimum effective dose (MED) (LPA5 receptor [3]; route po): 30 mg/kg
"COc1ccccc1Oc1ccc(C(=O)N(Cc2ccc(C(=O)O)cc2)CC2CC2)cc1 [Example 31, 4-((N-(Cyclopropylmethyl)-4-(2-methoxyphenoxy)benzamido)-methyl)benzoic acid]",5,4,–
"COc1ccccc1Oc1ccc(C(=O)N(Cc2ccc(C(=O)O)cc2)CC2CC2)nc1 [Example 69, 4-((N-(Cyclopropylmethyl)-5-(2-methoxyphenoxy)-picolinamido)methyl)benzoic acid]",8,12,–
"CCCN(Cc1ccc(C(=O)O)cc1)C(=O)c1ccc(Oc2ccccc2OC)cc1 [Example 62, 4-((4-(2-Methoxyphenoxy)-N-propylbenzamido)methyl)benzoic acid]",9,5,–
"CCCN(Cc1ccc(C(=O)O)cc1)C(=O)c1ncc(Oc2ccccc2OC)cn1 [Example 85, 4-((5-(2-Methoxyphenoxy)-N-propylpyrimidine-2-carboxamido)methyl)benzoic acid]",120,180,–
"Cc1cccc(C)c1Oc1ccc(C(=O)N(CCc2ccccc2)Cc2ccc(C(=O)O)cc2)cc1 [Example 47, 4-((4-(2,6-Dimethylphenoxy)-N-phenethylbenzamido)methyl)benzoic acid]",11,22,–
"COc1cccc(F)c1Oc1ccc(C(=O)N(Cc2ccc(C(=O)O)cc2)CC2CC2)cc1 [Example 67, 4-((N-(Cyclopropylmethyl)-4-(2-fluoro-6-methoxyphenoxy)benzamido)methyl)benzoic acid]",5,7,–
"O=C(O)c1ccc(CN(CC(F)F)C(=O)c2ccc(Oc3ccccc3Cl)cc2)cc1 [Example 78, 4-((4-(2-Chlorophenoxy)-N-(2,2-difluoroethyl)benzamido)methyl)benzoic acid]",170,390,–
"O=C(O)c1ccc(CN(CC2CC2)C(=O)c2ccc(Oc3ccccc3F)cc2)cc1 [Example 5, 4-((N-(Cyclopropylmethyl)-4-(2-fluorophenoxy)benzamido)-methyl)benzoic acid]",16,46,"bodyweight loss compared to the vehicle-treated group ([1]; 30 mg/kg p.o. BID): did not differ; skin collagen content compared to the vehicle-treated group ([1]; treatment from Day 0 to Day 28): significant reduction; skin collagen content compared to the vehicle-treated group ([1]; treatment from Day 14 to Day 28, 30 mg/kg p.o. BID): significant reduction"
"Cc1ccccc1Oc1ccc(C(=O)N(Cc2ccc(C(=O)O)cc2)CC2CC2)cc1 [Example 22, 4-((N-(Cyclopropylmethyl)-4-(o-tolyloxy)benzamido)methyl)benzoic acid]",24,30,–
"O=C(O)c1ccc(CN(CC2CC2)C(=O)c2ccc(Oc3c(F)cccc3F)cc2)cc1 [Example 37, 4-((N-(Cyclopropylmethyl)-4-(2,6-difluorophenoxy)benzamido)-methyl)benzoic acid]",28,25,–
"COc1ccccc1Oc1ccc(C(=O)N(Cc2ccc(C(=O)O)cc2)CC(C)(F)F)cc1 [Example 63, 4-((N-(2,2-Difluoropropyl)-4-(2-methoxyphenoxy)-benzamido)methyl)benzoic acid]",10,7,–
"Cc1ccccc1Oc1ccc(C(=O)N(CCc2ccccc2)Cc2ccc(C(=O)O)cc2)cc1 [Example 25, 4-((N-Phenethyl-4-(o-tolyloxy)benzamido)methyl)benzoic acid]",29,14,–
"O=C(O)c1ccc(CN(CC2CC2)C(=O)c2ccc(Oc3ccccc3F)cc2F)cc1 [Example 54, 4-((N-(Cyclopropylmethyl)-2-fluoro-4-(2-fluorophenoxy)-benzamido)methyl)benzoic acid]",26,27,–
"O=C(O)c1ccc(CN(CCC2CC2)C(=O)c2ccc(Oc3c(F)cccc3F)cc2)cc1 [Example 38, 4-((N-(2-Cyclopropylethyl)-4-(2,6-difluorophenoxy)benzamido)-methyl)benzoic acid]",140,36,–
"CC(C)CCN(Cc1ccc(C(=O)O)cc1)C(=O)c1ccc(Oc2ccccc2F)cc1 [Example 8, 4-((4-(2-Fluorophenoxy)-N-isopentylbenzamido)methyl)benzoic acid]",32,46,In vivo efficacy (minimum effective dose (MED) (LPA5 receptor [3]; route po): 100 mg/kg
"COc1cccc(CN(Cc2ccc(C(=O)O)cc2)C(=O)c2ccc(Oc3ccccc3F)cc2)c1 [Example 13, 4-((4-(2-Fluorophenoxy)-N-(3-methoxybenzyl)benzamido)-methyl)benzoic acid]",3,4,–
"CCN(Cc1ccc(C(=O)O)cc1)C(=O)c1ccc(Oc2ccccc2Cl)cc1 [Example 76, 4-((4-(2-Chlorophenoxy)-N-ethylbenzamido)methyl)benzoic acid]",140,130,–
"CC(C)CN(Cc1ccc(C(=O)O)cc1)C(=O)c1ccc(Oc2ccccc2F)cc1 [Example 4, 4-((4-(2-Fluorophenoxy)-N-isobutylbenzamido)methyl)benzoic acid]",63,49,In vivo efficacy (minimum effective dose (MED) (LPA5 receptor [3]; route ip): 1 mg/kg; In vivo efficacy (minimum effective dose (MED) mg/kg) (LPA5 receptor [3]; route po): ≦10 mg/kg
